Data from patent US11793741B2, “Topical composition” (Conopco, Inc., priority 2017, dated 2023).

System: psoriasin
Assay: Generation of psoriasin (AMP marker) by human keratinocytes, ELISA of cell culture supernatant
Type: cell-based
Settings: NHEK cells, 72 hours; for Fold change in psoriasin levels over control: control (Example A) = 1
Method: The experiment was done with the above-mentioned cells with passage between 3 and 4. The cells were seeded (35,000 cells/well) in 24 well plate with keratinocyte growth media (KGM) obtained from Invitrogen®. The plate was then incubated at 37±2° C. in a CO2 incubator for 48 hours. Step 2: After 48 hours of incubation, cell differentiation was induced by replacing media with fresh KGM supplemented with 2 mM calcium chloride solution. This was then followed by incubation at 37±2° C. in a CO2 incubator for 48 hours. Step 3: After that, the cells were treated with niacinamide and the compound of formula I, i.e. N-cyclopropyl nicotinamide, in varying concentration as outlined in table 1 below with keratinocyte growth media supplemented with 2 mM calcium chloride solution. Step 4: After the above treatment, cells were again incubated at 37±2° C. in a CO2 incubator for 72 hours. Step 5: After 72 hours of incubation, cell culture supernatant from each well was collected in a sterile tube. The samples were then stored at −80° C. until used for testing psoriasin secretion by standard ELISA technique using psoriasin ELISA kit obtained from Circulx® (No: CY-8073). In the current experiment, psoriasin was used as a marker for AMP. Step 6: The ELISA method was performed by using 100 μL of cell culture supernatant from each sample. The data is expressed in terms of fold change over control (no treatment: Example A). The fold change in psoriasin levels in case of control (example A) is taken to be equal to 1 fold. Any fold change in psoriasin obtained due to treatments outlined in all the other examples was over and above the 1 fold change obtained from the control.

| Compound | Fold change in psoriasin levels over control (100 μg/mL active) [fold] | Fold change in psoriasin levels over control (250 μg/mL active) [fold] | Fold change in psoriasin levels over control (500 μg/mL active) [fold] | Fold change in psoriasin over and above 1 fold of the control (100 μg/mL active) [fold] |
| --- | --- | --- | --- | --- |
| O=C(NC1CC1)c1cccnc1 [Example 1, N-cyclopropyl nicotinamide] | 1.61 | 1.88 | 2.16 | – |
| NC(=O)c1cccnc1 [Example B, Niacinamide] | 1.26 | 1.50 | 1.44 | 0.26 |
